Like-named read-outs stand apart in the source and are kept apart here. Marks after values point to notes of the source that are not given here.
Assays:
[1] = CNT-FET control, pristine CNT FET and empty nanodisc functionalized CNT FET (Example 2)
Description: In order to carry out the electrical measurements the devices were set up with the PDMS well and source, drain and gate electrodes, via micromanipulators and a Rucker and Kolls probe station, as shown in FIG. 9. Before starting the electrical measurements, 100 μl of PBS buffer (containing 1% DMSO) was added into the testing well. The gate electrode is an Ag/AgCl wire (In Vivo Metric) sheathed in plastic where the exposed area at the end of Ag/AgCl was completely inserted into the PBS buffer to avoid any electrical artefacts that are known to occur when changing the active area of the gate electrode. An Agilent 4156C parameter analyser is used for all electrical measurements^20. The parameter analyser has excellent sensitivity and can accurately measure currents on the femto-amp scale.
During transfer (Vlg−Ids) measurements the gate voltage (Vlg) is swept between −500 mV to +1 V and the source drain voltage (Vds) is set as fixed values (50 mV, 100 mV or 200 mV). For our real time sensing measurement the Vlg is set to 0 and Vds is set as fixed values (50 mV, 100 mV or 200 mV, with a time step of 1 s.
The E-2-hexenal ligand solution is diluted from our 100 mM stock solution, to the concentration ranges required for the sensing experiments. […]

Or22a [2] = target: T1, Or22a (Drosophila melanogaster, UniProt P81909); test: EIS sensor, Or22a nanodiscs on gold electrode (Example 4); type: binding
T1 sequence (P81909 1-397): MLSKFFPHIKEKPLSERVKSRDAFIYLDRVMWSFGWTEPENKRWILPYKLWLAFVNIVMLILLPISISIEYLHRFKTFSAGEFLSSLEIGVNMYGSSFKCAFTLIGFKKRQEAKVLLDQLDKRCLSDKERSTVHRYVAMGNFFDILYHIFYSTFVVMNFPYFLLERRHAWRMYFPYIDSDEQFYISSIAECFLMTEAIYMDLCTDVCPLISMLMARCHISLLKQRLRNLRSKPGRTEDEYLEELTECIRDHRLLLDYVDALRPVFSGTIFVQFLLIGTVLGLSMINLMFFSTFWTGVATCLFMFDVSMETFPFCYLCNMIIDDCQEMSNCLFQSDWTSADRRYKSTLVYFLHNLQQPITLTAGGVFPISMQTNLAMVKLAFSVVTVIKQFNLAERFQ

Or22a [3] = target: T1, Or22a; test: EIS sensor, Or22a liposomes on gold electrode, optimized conditions (Example 5); type: binding
DmOr22a/Orco = target: T2, DmOr22a/Orco (Drosophila melanogaster, UniProt P81909); conditions: cited from earlier work; for Sensitivity limit (Log): given as Log, estimated visually from graph
T2 sequence (P81909 1-397): T1 sequence (P81909 1-397)
T2 sequence (Q9VNB5 1-486 partner): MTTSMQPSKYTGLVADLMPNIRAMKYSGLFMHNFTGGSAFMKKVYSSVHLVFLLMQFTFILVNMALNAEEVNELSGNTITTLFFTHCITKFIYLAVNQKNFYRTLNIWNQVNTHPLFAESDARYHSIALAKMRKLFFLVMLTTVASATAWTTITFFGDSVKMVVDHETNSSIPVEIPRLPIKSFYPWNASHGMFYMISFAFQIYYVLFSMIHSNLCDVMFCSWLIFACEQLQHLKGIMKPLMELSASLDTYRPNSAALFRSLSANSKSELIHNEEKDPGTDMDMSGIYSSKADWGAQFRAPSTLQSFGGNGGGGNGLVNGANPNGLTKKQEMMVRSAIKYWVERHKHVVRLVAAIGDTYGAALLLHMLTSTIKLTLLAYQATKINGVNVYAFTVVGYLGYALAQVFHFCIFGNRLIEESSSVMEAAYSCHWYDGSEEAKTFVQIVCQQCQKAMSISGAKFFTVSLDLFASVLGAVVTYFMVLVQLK

OR71a = target: T3, OR71a (Drosophila melanogaster, UniProt Q9VUK5); test: EIS sensor, Or71a liposomes on gold electrode, optimized conditions (Example 5); type: binding
T3 sequence (Q9VUK5 1-378): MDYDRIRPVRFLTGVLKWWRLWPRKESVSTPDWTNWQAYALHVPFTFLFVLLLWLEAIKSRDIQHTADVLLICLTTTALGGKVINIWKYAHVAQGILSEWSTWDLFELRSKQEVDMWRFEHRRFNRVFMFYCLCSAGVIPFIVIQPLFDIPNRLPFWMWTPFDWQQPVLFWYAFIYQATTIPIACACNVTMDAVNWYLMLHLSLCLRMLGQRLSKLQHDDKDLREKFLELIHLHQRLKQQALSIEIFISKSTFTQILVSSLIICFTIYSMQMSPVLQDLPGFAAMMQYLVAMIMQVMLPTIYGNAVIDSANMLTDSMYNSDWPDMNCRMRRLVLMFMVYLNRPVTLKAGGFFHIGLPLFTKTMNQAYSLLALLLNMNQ

SMILES: CCC/C=C/C=O [E2-hexenal]
- real time current response [1]: no clear current response
- EIS response to control ligand (Or22a [2]): do not respond

SMILES: CCCCCC(=O)OC [methyl hexanoate]
- LOD (Or22a [3]; EIS): 10 fM
- Sensitivity limit (Log) (DmOr22a/Orco; ref 23): Log = −7.5*
- EC50 (DmOr22a/Orco; ref 24): 1170 nM
- Sensitivity limit (Log) (DmOr22a/Orco; ref 24): Log = −7*
- LOD (Or22a [2]; EIS): < 100 pM

SMILES: COC(=O)c1ccccc1O [methyl salicylate]
- EIS response to control ligand (Or22a [3]): do not respond
- EIS response to control ligand (OR71a): do not respond

Source: patent US12044651B2, “Sensor device and methods” (SCENTIAN BIO LIMITED, priority 2016, dated 2024)
